Experimental data published in ChEMBL document CHEMBL6127104, “Prorocentin-5: A Cytotoxic Polyketide from the Benthic Marine Dinoflagellate Prorocentrum lima” (J Nat Prod, 2024).

How the values were obtained:
Assay type in all cases: functional
HepG2 [1] = experiment: Induction of apoptosis in human HepG2 cells assessed as early apoptotic cells at 0.1 uM incubated for 24 hrs by Annexin V-FITC/PI staining based flow cytometric analysis (reference value: 4.85 %)
N2a [2] = experiment: Induction of cell cycle arrest in mouse Neuro2a cells assessed as accumulation of cells at G2/M phase at 0.1 uM incubated for 24 hrs by flow cytometric analysis (reference value: 8.0 %)
HepG2 [3] = experiment: Induction of apoptosis in human HepG2 cells assessed as late apoptotic cells at 0.1 uM incubated for 24 hrs by Annexin V-FITC/PI staining based flow cytometric analysis (reference value: 2.05 %)
N2a [4] = experiment: Induction of cell cycle arrest in mouse Neuro2a cells assessed as accumulation of cells at S phase at 1 uM incubated for 24 hrs by flow cytometric analysis (reference value: 30.5 %)
N2a [5] = experiment: Induction of cell cycle arrest in mouse Neuro2a cells assessed as accumulation of cells at G2/M phase at 1 uM incubated for 24 hrs by flow cytometric analysis (reference value: 8.0 %)
N2a [6] = experiment: Induction of apoptosis in mouse Neuro2a cells assessed as fold increase in early apoptotic cells at 1 uM incubated for 24 hrs by Annexin V-FITC/PI staining based analysis
HCT-116 [7] = experiment: Induction of apoptosis in human HCT-116 cells assessed as late apoptotic cells at 1 uM incubated for 24 hrs by Annexin V-FITC/PI staining based flow cytometric analysis (reference value: 6.15 %)
HCT-116 [8] = experiment: Induction of cell cycle arrest in human HCT-116 cells assessed as accumulation of cells at G0/G1 phase at 1 uM incubated for 24 hrs by flow cytometric analysis (reference value: 90.2 %)
HCT-116 [9] = experiment: Induction of apoptosis in human HCT-116 cells assessed as necrotic cells at 0.1 uM incubated for 24 hrs by Annexin V-FITC/PI staining based flow cytometric analysis (reference value: 1.45 %)
N2a [10] = experiment: Induction of apoptosis in mouse Neuro2a cells assessed as late apoptotic cells at 1 uM incubated for 24 hrs by Annexin V-FITC/PI staining based analysis (reference value: 0.81 %)
HepG2 [11] = experiment: Induction of apoptosis in human HepG2 cells assessed as early apoptotic cells at 1 uM incubated for 24 hrs by Annexin V-FITC/PI staining based flow cytometric analysis (reference value: 4.85 %)
N2a [12] = experiment: Induction of apoptosis in mouse Neuro2a cells assessed as early apoptotic cells at 0.1 uM incubated for 24 hrs by Annexin V-FITC/PI staining based analysis (reference value: 3.17 %)
HepG2 [13] = experiment: Induction of apoptosis in human HepG2 cells assessed as viable cells at 0.1 uM incubated for 24 hrs by Annexin V-FITC/PI staining based flow cytometric analysis (reference value: 90.08 %); details: read-out: Activity
HepG2 [14] = experiment: Induction of cell cycle arrest in human HepG2 cells assessed as accumulation of cells at G0/G1 phase at 0.1 uM incubated for 24 hrs by flow cytometric analysis (reference value: 66.4 %)
N2a [15] = experiment: Induction of apoptosis in mouse Neuro2a cells assessed as viable cells at 0.1 uM incubated for 24 hrs by Annexin V-FITC/PI staining based analysis (reference value: 91.70 %); details: read-out: Activity
N2a [16] = experiment: Induction of apoptosis in mouse Neuro2a cells assessed as necrotic cells at 1 uM incubated for 24 hrs by Annexin V-FITC/PI staining based analysis (reference value: 4.33 %)
HCT-116 [17] = experiment: Induction of apoptosis in human HCT-116 cells assessed as viable cells at 1 uM incubated for 24 hrs by Annexin V-FITC/PI staining based flow cytometric analysis (reference value: 90.50 %); details: read-out: Activity
HCT-116 [18] = experiment: Induction of apoptosis in human HCT-116 cells assessed as late apoptotic cells at 0.1 uM incubated for 24 hrs by Annexin V-FITC/PI staining based flow cytometric analysis (reference value: 6.15 %)
HCT-116 [19] = experiment: Induction of cell cycle arrest in human HCT-116 cells assessed as accumulation of cells at G0/G1 phase at 0.1 uM incubated for 24 hrs by flow cytometric analysis (reference value: 90.2 %)
HepG2 [20] = experiment: Induction of cell cycle arrest in human HepG2 cells assessed as accumulation of cells at G0/G1 phase at 1 uM incubated for 24 hrs by flow cytometric analysis (reference value: 66.4 %)
N2a [21] = experiment: Induction of apoptosis in mouse Neuro2a cells assessed as viable cells at 1 uM incubated for 24 hrs by Annexin V-FITC/PI staining based analysis (reference value: 91.70 %); details: read-out: Activity
HCT-116 [22] = experiment: Induction of apoptosis in human HCT-116 cells assessed as early apoptotic cells at 1 uM incubated for 24 hrs by Annexin V-FITC/PI staining based flow cytometric analysis (reference value: 1.90 %)
HepG2 [23] = experiment: Induction of apoptosis in human HepG2 cells assessed as viable cells at 1 uM incubated for 24 hrs by Annexin V-FITC/PI staining based flow cytometric analysis (reference value: 90.08 %); details: read-out: Activity
HCT-116 [24] = experiment: Induction of apoptosis in human HCT-116 cells assessed as fold increase in late apoptotic cells at 1 uM incubated for 24 hrs by Annexin V-FITC/PI staining based analysis
HepG2 [25] = experiment: Induction of apoptosis in human HepG2 cells assessed as fold increase in early apoptotic cells at 1 uM incubated for 24 hrs by Annexin V-FITC/PI staining based flow cytometric analysis
HepG2 [26] = experiment: Induction of cell cycle arrest in human HepG2 cells assessed as accumulation of cells at S phase at 0.1 uM incubated for 24 hrs by flow cytometric analysis (reference value: 27.8 %)
HCT-116 [27] = experiment: Induction of cell cycle arrest in human HCT-116 cells assessed as accumulation of cells at G2/M phase at 1 uM incubated for 24 hrs by flow cytometric analysis (reference value: 30.6 %)
HCT-116 [28] = experiment: Induction of apoptosis in human HCT-116 cells assessed as necrotic cells at 1 uM incubated for 24 hrs by Annexin V-FITC/PI staining based flow cytometric analysis (reference value: 1.45 %)
N2a [29] = experiment: Induction of cell cycle arrest in mouse Neuro2a cells assessed as accumulation of cells at G0/G1 phase at 0.1 uM incubated for 24 hrs by flow cytometric analysis (reference value: 61.5 %)
N2a [30] = experiment: Induction of apoptosis in mouse Neuro2a cells assessed as late apoptotic cells at 0.1 uM incubated for 24 hrs by Annexin V-FITC/PI staining based analysis (reference value: 0.81 %)
N2a [31] = experiment: Induction of cell cycle arrest in mouse Neuro2a cells assessed as accumulation of cells at S phase at 0.1 uM incubated for 24 hrs by flow cytometric analysis (reference value: 30.5 %)
HCT-116 [32] = experiment: Induction of cell cycle arrest in human HCT-116 cells assessed as accumulation of cells at S phase at 1 uM incubated for 24 hrs by flow cytometric analysis (reference value: 19.2 %)
HepG2 [33] = experiment: Induction of apoptosis in human HepG2 cells assessed as necrotic cells at 0.1 uM incubated for 24 hrs by Annexin V-FITC/PI staining based flow cytometric analysis (reference value: 3.02 %)
HepG2 [34] = experiment: Induction of apoptosis in human HepG2 cells assessed as fold increase in late apoptotic cells at 1 uM incubated for 24 hrs by Annexin V-FITC/PI staining based flow cytometric analysis
N2a [35] = experiment: Induction of apoptosis in mouse Neuro2a cells assessed as necrotic cells at 0.1 uM incubated for 24 hrs by Annexin V-FITC/PI staining based analysis (reference value: 4.33 %)
HepG2 [36] = experiment: Induction of apoptosis in human HepG2 cells assessed as necrotic cells at 1 uM incubated for 24 hrs by Annexin V-FITC/PI staining based flow cytometric analysis (reference value: 3.02 %)
HepG2 [37] = experiment: Induction of apoptosis in human HepG2 cells assessed as late apoptotic cells at 1 uM incubated for 24 hrs by Annexin V-FITC/PI staining based flow cytometric analysis (reference value: 2.05 %)
HCT-116 [38] = experiment: Induction of apoptosis in human HCT-116 cells assessed as fold increase in early apoptotic cells at 1 uM incubated for 24 hrs by Annexin V-FITC/PI staining based analysis
HCT-116 [39] = experiment: Induction of apoptosis in human HCT-116 cells assessed as early apoptotic cells at 0.1 uM incubated for 24 hrs by Annexin V-FITC/PI staining based flow cytometric analysis (reference value: 1.90 %)
N2a [40] = experiment: Induction of apoptosis in mouse Neuro2a cells assessed as early apoptotic cells at 1 uM incubated for 24 hrs by Annexin V-FITC/PI staining based analysis (reference value: 3.17 %)
HCT-116 [41] = experiment: Induction of cell cycle arrest in human HCT-116 cells assessed as accumulation of cells at G2/M phase at 0.1 uM incubated for 24 hrs by flow cytometric analysis (reference value: 30.6 %)
N2a [42] = experiment: Induction of apoptosis in mouse Neuro2a cells assessed as fold increase in late apoptotic cells at 1 uM incubated for 24 hrs by Annexin V-FITC/PI staining based analysis
HepG2 [43] = experiment: Induction of cell cycle arrest in human HepG2 cells assessed as accumulation of cells at G2/M phase at 1 uM incubated for 24 hrs by flow cytometric analysis (reference value: 27.8 %)
N2a [44] = experiment: Induction of cell cycle arrest in mouse Neuro2a cells assessed as accumulation of cells at G0/G1 phase at 1 uM incubated for 24 hrs by flow cytometric analysis (reference value: 61.5 %)
HCT-116 [45] = experiment: Induction of apoptosis in human HCT-116 cells assessed as viable cells at 0.1 uM incubated for 24 hrs by Annexin V-FITC/PI staining based flow cytometric analysis (reference value: 90.50 %); details: read-out: Activity
HepG2 [46] = experiment: Induction of cell cycle arrest in human HepG2 cells assessed as accumulation of cells at G2/M phase at 0.1 uM incubated for 24 hrs by flow cytometric analysis (reference value: 6.7 %)
HCT-116 [47] = experiment: Induction of cell cycle arrest in human HCT-116 cells assessed as accumulation of cells at S phase at 0.1 uM incubated for 24 hrs by flow cytometric analysis (reference value: 19.2 %)
HepG2 [48] = experiment: Induction of cell cycle arrest in human HepG2 cells assessed as accumulation of cells at S phase at 1 uM incubated for 24 hrs by flow cytometric analysis (reference value: 27.8 %)

C=C1[C@@H](O)[C@@H]2O[C@]3(CC[C@H](/C=C/[C@@H](C)[C@@H]4CC(C)=C[C@@]5(O[C@H](C[C@@](C)(O)C(=O)O)CC[C@H]5O)O4)O3)CC[C@H]2O[C@@H]1[C@@H](O)C[C@H](C)[C@H]1O[C@@]2(CCCCO2)CC[C@H]1C [OKADAIC ACID]
Activity (HepG2 [1]): 13.5%
Activity (N2a [2]): 13%
Activity (HepG2 [3]): 24.73%
Activity (N2a [4]): 55%
Activity (N2a [5]): 8.1%
fold change (FC) (N2a [6]): 9.2
Activity (HCT-116 [7]): 16.9%
Activity (HCT-116 [8]): 55.5%
Activity (HCT-116 [9]): 12.45%
Activity (N2a [10]): 10.7%
Activity (HepG2 [11]): 23.72%
Activity (N2a [12]): 10.91%
viability at 0.1 µM (HepG2 [13]): 52.7%
Activity (HepG2 [14]): 48.5%
viability at 0.1 µM (N2a [15]): 76.4%
Activity (N2a [16]): 0.57%
viability at 1 µM (HCT-116 [17]): 59.7%
Activity (HCT-116 [18]): 7.55%
Activity (HCT-116 [19]): 32.2%
Activity (HepG2 [20]): 49.5%
viability at 1 µM (N2a [21]): 59.7%
Activity (HCT-116 [22]): 3.65%
viability at 1 µM (HepG2 [23]): 50.9%
fold change (FC) (HCT-116 [24]): 2.8
fold change (FC) (HepG2 [25]): 4.9
Activity (HepG2 [26]): 36.8%
Activity (HCT-116 [27]): 20.4%
Activity (HCT-116 [28]): 19.75%
Activity (N2a [29]): 30.4%
Activity (N2a [30]): 7.75%
Activity (N2a [31]): 56.6%
Activity (HCT-116 [32]): 23.9%
Activity (HepG2 [33]): 9.05%
fold change (FC) (HepG2 [34]): 11
Activity (N2a [35]): 4.9%
Activity (HepG2 [36]): 2.92%
Activity (HepG2 [37]): 22.44%
fold change (FC) (HCT-116 [38]): 1.9
Activity (HCT-116 [39]): 0.8%
Activity (N2a [40]): 29.01%
Activity (HCT-116 [41]): 44.6%
fold change (FC) (N2a [42]): 13.2
Activity (HepG2 [43]): 13.3%
Activity (N2a [44]): 36%
viability at 0.1 µM (HCT-116 [45]): 79.2%
Activity (HepG2 [46]): 14.6%
Activity (HCT-116 [47]): 23%
Activity (HepG2 [48]): 37.2%
